Measurements taken from patent US20230381774A1, “MICROFLUDIC LAB-ON-CHIP DEVICE, MATRIX, SMALL MOLECULES AND THREE-DIMENSIONAL SPHEROIDS FOR CELL REPROGRAMMING” (The Regents of the University of California, priority 2022, published 2023).
“Also recorded” adds a separate entry of the source.

How the values were obtained:
Assay type in all cases: cell-based, mouse
iN cells [1] = test: Patch-clamp electrophysiology of iN cells; details: for functionality of derived iN cells: electrophysiological analysis
Experimental: For functional assessment of the iN cells, patch-clamp electrophysiology analysis was performed. All experiments were conducted at room temperature (22° C.-24° C.). All reagents were purchased from Sigma-Aldrich unless otherwise specified. Whole-cell recording was made from neurons using a patch clamp amplifier (MultiClamp 700B, Axon Instr.) under infrared differential interference contrast optics. Microelectrodes were made from borosilicate glass capillaries, with a resistance of 4-5 MW. For recording action potentials, cells were held at −70 mV in a […]. The intracellular solution for whole-cell recording of EPSPs and action potentials contained (in mM) 140 potassium gluconate, 5 KCl, 10 HEPES, 0.2 EGTA, 2 MgCl2, 4 MgATP, 0.3 Na2GTP and 10 Na2-phosphocreatine, pH 7.2 (adjusted with KOH).
For recording spontaneous EPSCs (sEPSCs), cells were pre-treated with the extracellular bath solution containing 50 μM picrotoxin (Tocris) to exclude an inhibitory synaptic activity and held at −70 mV in a voltage-clamp mode with the intracellular solution containing (in mM) 130 CsMeSO4, 7 CsCl, 10 HEPES, 1 EGTA, 4 MgATP, 0.3 Na2GTP, and 10 Na2-phosphocreatine, pH 7.3 (adjusted with CsOH). After recording basal sEPSC responses for 5 min, 10 μM CNQX (Tocris) and 100 μM D,L-APV (Tocris) were co-treated to test whether sEPSCs were mediated by activation of both AMPA- and NMDA-type of glutamate receptors. For measuring spontaneous IPSC (sIPSCs), cells were pre-treated with the bath solution containing 10 μM CNQX and 100 μM D,L-APV and held at −70 mV with the intracellular solution containing (in mM) 137 CsCl, 10 HEPES, 1 EGTA, 4 MgATP, 0.3 Na2GTP, and 10 Na2-phosphocreatine, pH 7.3 (adjusted with CsOH). 50 μM picrotoxin was then treated to test a dependency of sIPSCs on GABA receptors after acquiring basal sIPSC responses for 5 min. Series resistance (10-25 MΩ) and input resistance (˜200 MΩ using potassium-based internal solution; 1-2 G2 using Cs-based internal solution) were monitored throughout the whole-cell recording or compared before and after sEPSC/IPSC recordings.
Off-line analyses of action potential properties (number, amplitude, half-width) and the amplitude and frequency of sEPSC and sIPSC were performed by using a threshold event detection function of the Clampfit software (Molecular Devices). Visualization of analysis results and their statistical tests were performed by using GraphPad Prism® 6.0 software.

iN cells [2] = test: Immunostaining of mature neuronal markers in iN cells; details: iN cells derived in presence of inhibitor
Experimental: (§1) For immunostaining, cells were fixed with 4% paraformaldehyde (Electron Microscopy Sciences), permeabilized with 0.5% Triton-X-100 (Sigma), and blocked with 5% donkey serum (Jackson Immunoresearch) in phosphate buffered saline (PBS). For actin-cytoskeleton staining, samples were incubated with fluorescein isothiocyanate-conjugated phalloidin (Invitrogen) for 1 hour. Primary antibodies were incubated for 1 hour at room temperature or overnight at 4° C., followed by 1-hour incubation with Alexa 488 and/or Alexa 546-labeled secondary antibodies (Molecular Probes). Nuclei were stained with 4,6-diamino-2-phenylindole (DAPI) (Invitrogen).

ERK = test: Downstream ERK signaling (Western blot)
Experimental: Fibroblasts were lysed and collected in Laemmli buffer ([…] Tris-HCl, 10% glycerol, 2% SDS, 5% 2-mercaptoethanol, 0.002% bromophenol blue) containing RIPA buffer (50 mM Tris-HCl, 150 mM NaCl, 1% Triton-X-100, 0.1% SDS, 10 mM NaF, 0.5% sodium deoxycholate) along with protease inhibitors (PMSF, Na3VO4 and Leupeptin) on ice. Protein lysates were centrifuged to pellet cell debris, and the supernatant was collected and used in further analysis. Protein samples were run using SDS-PAGE and transferred to polyvinylidene fluoride (PVDF) membranes. Membranes were blocked in 3% nonfat milk and incubated with primary antibodies overnight. Primary antibodies include pFAK, FAK, αSMA, Calponin, pERK, ERK, and GAPDH. Membranes were washed with Tris-Buffered Saline+0.05% Tween-20 and incubated with HRP-conjugated IgG secondary antibodies (Santa Cruz Biotechnologies) for one hour. Protein bands were visualized using Western Lightning™ Plus—Enhanced Chemiluminscence Substrate (Perkin Elmer Life & Analytical Sciences) and imaged on a ChemiDoc XRS system (Bio-Rad).

[3] = test system: Ascl1-transduced fibroblasts; test: Single-factor (Ascl1-only) iN reprogramming; details: 10 μM, relative to control
Experimental: After transduction, mouse fibroblasts were seeded onto multi-well tissue culture-treated polystyrene dishes (Falcon) coated with laminin (0.1 mg/ml, Corning) at 4,000 cells per cm^2. Twenty-four hours after seeding, the medium was replaced to MEF medium containing doxycycline (2 μg/ml, Sigma). The following day (i.e., day 1) the medium was changed to N3 medium (DMEM/F12 [GIBCO]+N2 supplement [Invitrogen]+B27 supplement [Invitrogen]+1% penicillin/streptomycin [Gibco]+ doxycycline [2 μg/ml, Sigma]) and the cultures were maintained in this medium for the duration of the experiments. For Ascl1-only reprogramming, N3 medium was further supplemented with BDNF (5 ng/ml, R&D systems) and GDNF (5 ng/ml, R&D systems) after day 7. […] After culturing for the desired length (14 days for BAM and 21 days for Ascl1 only), the induced neuronal (iN) cells were analyzed and the reprogramming efficiency was determined.
The reprogramming efficiency was determined by as the percentage of TUBB3^+ iN cells in each condition normalized to the number of cells plated at 24 hours post-seeding. […]

fibroblasts = test: Cell morphology, actin and focal adhesion immunostaining; details: 24 hours
Experimental: as §1

[4] = absence vs presence of blebbistatin

Row | Compound | functionality of derived iN cells (iN cells [1]) | mature neuronal marker expression of derived iN cells (iN cells [2]) | downstream ERK signaling (ERK) | frequency of spontaneous EPSCs (iN cells [1]; [4]) | frequency of spontaneous IPSCs (iN cells [1]; [4]) | IPSC amplitude (iN cells [1]; blebbistatin-derived iN cells) | EPSC amplitude (iN cells [1]; iN cells derived with blebbistatin) | action potential properties (iN cells [1]; iN cells generated in absence vs presence of blebbistatin) | iN cell generation from Ascl1-transduced fibroblasts [3] | actin fibers (fibroblasts) | paxillin punctate (fibroblasts) | cell morphology and spreading (fibroblasts; 10 μM)
1 | CS(=O)(=O)c1cccc(CNc2nc(Nc3ccc4c(c3)CCC(=O)N4)ncc2C(F)(F)F)c1 [PF573228] | exhibited functional neuronal properties as assessed by electrophysiological analysis | expressed neuronal markers, including NeuN, MAP2, and synapsin; also recorded: displaying a typical neuronal morphology and co-expressing mature neuronal markers, NeuN, MAP2 and synapsin | modulated downstream ERK signaling |  |  |  |  |  |  |  |  | 
2 | Cc1ccc2c(c1)C(=O)C1(O)CCN(c3ccccc3)C1=N2 (centres unmarked) [blebbistatin] | functional, exhibiting spontaneous changes in membrane potential in response to current injection | expressed NeuN, microtubule-associated protein 2 (MAP2), and synapsin |  | no significant difference | no significant difference | significantly lower | significantly higher | no apparent difference | could generate significantly more iN cells from Ascl1-transduced fibroblasts relative to control | fewer intact actin fibers | fewer positive paxillin punctate | induced dramatic changes in cell morphology and reduced cell spreading
